# Measured values as given in patent publication US9723837B2, “Imidazole derivatives useful for controlling microbial growth” (North Carolina State University, priority 2012, dated 2017).
# Experiments:
# [1] = tested on: MRSA ATCC BAA 44; experiment: Broth microdilution MIC, MRSA ATCC BAA 44; assay type: cell-based, Staphylococcus aureus; conditions: for MIC MRSA: Table 2 pilot library screen; for MIC MRSA BAA 44: Table 3 nine-strain screen
# Procedure: (§1) Each member of the pilot library was tested for antibiotic activity. Activity was quantified by measuring the MIC of each derivative against a variety of representative pathogenic bacterial strains using the microdilution protocol (CSLI, Performance Standards for Antimicrobial Susceptibility Testing; Nineteenth Informational Supplement, Clinical and Laboratory Standards Institute, Wayne, Pa., 2009). A. baumannii, E. coli, MSSA, and MRSA were used for initial evaluation. […] Compounds 4d, 4n, and 4o were determined to be the lead compounds.
# (§2) Once it was noted that compounds were active against MSSA and MRSA, the library was tested against various MRSA strains isolated from a nosocomial environment. MRSA has emerged as a major cause of illness and death in hospitals. These illnesses include lower respiratory tract infections, surgical site infections, cardiovascular infections and pneumonia. Nine different MRSA strains were obtained, and lead compounds 4d and 4o were screened for activity.
# (§3) Broth Microdilution Method for MIC Determination.
# (§4) Overnight cultures of bacterial strain were subcultured to 5×10^5 CFU/mL in Mueller-Hinton medium (Fluka #70192). The resulting bacterial suspension was aliquoted (1.0 mL) into culture tubes. Samples were prepared from these culture tubes containing either 256 μg/mL of specified antibiotic or no test compound as a control. Samples were then aliquoted (200 μL) into the first row of wells of a 96-well microtiter plate in which subsequent wells were prefilled with 100 μL of Mueller-Hinton medium based 5×10^5 CFU/mL bacterial subculture. Using the multichannel pipettor set at 100 μL, row one wells were mixed 8-10 times. Then, 100 μL were withdrawn and transferred to row two. Row two wells were mixed 8-10 times followed by a 100 μL transfer from row two to row three. This procedure was used to serial dilute the rest of the rows of the microtier plate. The microtiter plate sample was then covered with a microtiter plate lid and then placed in a covered plastic container. The chamber was incubated under stationary conditions at 37° C.
# [2] = tested on: MSSA; experiment: Broth microdilution MIC, MSSA; assay type: cell-based, Staphylococcus aureus; conditions: Mueller-Hinton medium, 37° C., 16 hours
# Procedure: as §1, §3, §4
# [3] = tested on: A. baumannii; experiment: Broth microdilution MIC, A. baumannii; assay type: cell-based; conditions: Mueller-Hinton medium, 37° C., 16 hours
# Procedure: as §1, §3, §4
# [4] = tested on: E. coli; experiment: Broth microdilution MIC, E. coli; assay type: cell-based; conditions: Mueller-Hinton medium, 37° C., 16 hours
# Procedure: as §1, §3, §4
# [5] = tested on: MRSA ATCC 43300; experiment: Broth microdilution MIC, MRSA ATCC 43300; assay type: cell-based, Staphylococcus aureus
# Procedure: as §2, §3
# as §4, with “The microtiter plate sample was then covered with a microtiter plate lid and then placed in a covered plastic container. The chamber was incubated under stationary conditions at 37° C.” left out
# [6] = tested on: MRSA ATCC BAA 1685; experiment: Broth microdilution MIC, MRSA ATCC BAA 1685; assay type: cell-based, Staphylococcus aureus
# Procedure: as §2, §3
# as §4, with “The microtiter plate sample was then covered with a microtiter plate lid and then placed in a covered plastic container. The chamber was incubated under stationary conditions at 37° C.” left out
# [7] = tested on: MRSA ATCC 33591; experiment: Broth microdilution MIC, MRSA ATCC 33591; assay type: cell-based, Staphylococcus aureus
# Procedure: as §2, §3
# as §4, with “The microtiter plate sample was then covered with a microtiter plate lid and then placed in a covered plastic container. The chamber was incubated under stationary conditions at 37° C.” left out
# [8] = tested on: MRSA ATCC BAA 1753; experiment: Broth microdilution MIC, MRSA ATCC BAA 1753; assay type: cell-based, Staphylococcus aureus
# Procedure: as §2, §3
# as §4, with “The microtiter plate sample was then covered with a microtiter plate lid and then placed in a covered plastic container. The chamber was incubated under stationary conditions at 37° C.” left out
# [9] = tested on: MRSA ATCC BAA 1770; experiment: Broth microdilution MIC, MRSA ATCC BAA 1770; assay type: cell-based, Staphylococcus aureus
# Procedure: as §2, §3
# as §4, with “The microtiter plate sample was then covered with a microtiter plate lid and then placed in a covered plastic container. The chamber was incubated under stationary conditions at 37° C.” left out
# [10] = tested on: MRSA ATCC BAA 811; experiment: Broth microdilution MIC, MRSA ATCC BAA 811; assay type: cell-based, Staphylococcus aureus
# Procedure: as §2, §3
# as §4, with “The microtiter plate sample was then covered with a microtiter plate lid and then placed in a covered plastic container. The chamber was incubated under stationary conditions at 37° C.” left out
# [11] = tested on: MRSA ATCC 700789; experiment: Broth microdilution MIC, MRSA ATCC 700789; assay type: cell-based, Staphylococcus aureus
# Procedure: as §2, §3
# as §4, with “The microtiter plate sample was then covered with a microtiter plate lid and then placed in a covered plastic container. The chamber was incubated under stationary conditions at 37° C.” left out
# [12] = tested on: MRSA ATCC BAA 1556; experiment: Broth microdilution MIC, MRSA ATCC BAA 1556; assay type: cell-based, Staphylococcus aureus
# Procedure: as §2, §3
# as §4, with “The microtiter plate sample was then covered with a microtiter plate lid and then placed in a covered plastic container. The chamber was incubated under stationary conditions at 37° C.” left out
Structure (SMILES),MIC MRSA [1] [µg/mL],MIC MSSA [2] [µg/mL],MIC A. baumannii [3] [µg/mL],MIC E. coli [4] [µg/mL],MIC MRSA 43300 [5] [µg/mL],MIC MRSA BAA 44 [1] [µg/mL],MIC MRSA BAA 1685 [6] [µg/mL],MIC MRSA 33591 [7] [µg/mL],MIC MRSA BAA 1753 [8] [µg/mL],MIC MRSA BAA 1770 [9] [µg/mL],MIC MRSA BAA 811 [10] [µg/mL],MIC MRSA 700789 [11] [µg/mL],MIC MRSA BAA 1556 [12] [µg/mL]
CCCCCCCCCCc1ccc(-n2c(N)nc(-c3ccccc3)c2-c2ccccc2)cc1 [Compound 4i],>256,>256,>256,>256,,,,,,,,,
Cc1ccc(-c2c(-c3ccccc3)nc(N)n2-c2ccccc2)cc1 [Compound 4m],>256,>256,>256,>256,,,,,,,,,
CCCCCCCCCCc1ccc(-n2c(N)nc(C)c2-c2ccccc2)cc1 [Compound 4g],4,32,>256,>256,,,,,,,,,
CCCCCCCCCCc1ccc(-n2c(N)nc(CCCCCC)c2-c2ccccc2)cc1 [Compound 4h],>256,>256,>256,>256,,,,,,,,,
CCCCCCc1nc(N)n(-c2ccccc2)c1-c1ccccc1 [Compound 4b],8,16,>256,>256,,,,,,,,,
CCCc1ccc(-n2c(N)nc(C)c2-c2ccccc2)cc1 [Compound 4n],32,32,64,64,,,,,,,,,
CCCCCCCc1ccc(-n2c(N)nc(CCCCCC)c2-c2ccccc2)cc1 [Compound 4e],128,>256,>256,>256,,,,,,,,,
CCCCCCc1nc(N)n(-c2ccc(-c3ccccc3)cc2)c1-c1ccccc1 [Compound 4j],4,4,>256,>256,,,,,,,,,
Nc1nc(-c2ccccc2)c(-c2ccccc2)n1-c1ccc(-c2ccccc2)cc1 [Compound 4k],>256,>256,>256,>256,,,,,,,,,
Nc1nc(-c2ccccc2)c(-c2ccccc2)n1-c1ccccc1 [Compound 4c],>256,>256,>256,>256,,,,,,,,,
CCCCCc1ccc(-n2c(N)nc(C)c2-c2ccccc2)cc1 [Compound 4o],4,8,16,>256,8,4,8,8,8,8,8,8,8
CCCCCCc1nc(N)n(-c2ccccc2)c1-c1ccc(C)cc1 [Compound 4l],4,8,>256,>256,,,,,,,,,
Cc1nc(N)n(-c2ccccc2)c1-c1ccccc1 [Compound 4a],256,256,128,256,,,,,,,,,
CCCCCCCc1ccc(-n2c(N)nc(C)c2-c2ccccc2)cc1 [Compound 4d],2,4,64,>256,2,2,4,8,4,8,2,4,4
CCCCCCCc1ccc(-n2c(N)nc(-c3ccccc3)c2-c2ccccc2)cc1 [Compound 4f],>256,>256,>256,>256,,,,,,,,,
